Tests used:
Brassica napus [1] = assay: In vivo analyses Part A: drought stress, spray application, visual damage scoring, Brassica napus
Method: (§1) Seeds of monocotyledonous and dicotyledonous crop plants were sown in sandy loam in wood-fiber or plastic pots, covered with soil or sand and cultivated in a greenhouse under good growth conditions. The trial plants were treated at the early leaf stage (BBCH10-BBCH13). To assure uniform water supply before commencement of stress, the potted plants were supplied with water by dam irrigation prior to substance application. The inventive compounds formulated in the form of wettable powders (WP) were sprayed onto the green parts of the plants as an aqueous suspension at an equivalent water application rate of 600 l/ha with addition of 0.2% wetting agent (e.g. agrotin). Substance application was followed immediately by stress treatment of the plants. For this purpose, the wood-fiber pots were transferred in plastic inserts in order to prevent them from subsequently drying out too quickly. Drought stress was induced by gradual drying out under the following conditions: “Day”: 14 hours with illumination at ˜26-30° C. “Night”: 10 hours without illumination at ˜18-20° C. The duration of the respective stress phases was guided mainly by the condition of the stressed control plants. It was ended (by re-irrigating and transfer to a greenhouse with good growth conditions) as soon as irreversible damage was observed on the stressed control plants. The end of the stress phase was followed by an about 4-7-day recovery phase, during which the plants were once again kept under good growth conditions in a greenhouse. The duration of the recovery phase was guided mainly by when the trial plants had attained a state which enabled visual scoring of potential effects, and is therefore variable. Once this juncture was reached, the intensities of damage were scored visually in comparison to untreated, unstressed controls of the same age. The damage intensity was at first assessed in per cent. These values were then used to calculate the efficacy of the test compounds by the following formula: [formula] EF: Efficacy DIs: Damage intensity of the stressed control plants DIt: Damage intensity of the stressed plants treated with test compound The values reported in tables A-1 to A-3 below are mean values from at least one trial with at least two repeats, showing the effects of selected compounds of the general formula (I) under drought stress on various crop plants.

Triticum aestivum [2] = assay: In vivo analyses Part A: drought stress, spray application, visual damage scoring, Triticum aestivum
Method: as §1

Zea mays = assay: In vivo analyses Part A: drought stress, spray application, visual damage scoring, Zea mays
Method: as §1

Brassica napus [3] = assay: In vivo analyses Part B: drought stress, spray application, appearance vs stressed control in categories, Brassica napus; design: key: 0: no positive effect; +: slight positive effect; ++: clear positive effect; +++: strong positive effect
Method: (§2) Seeds of monocotyledonous and dicotyledonous crop plants were sown in sandy loam in plastic pots, covered with soil or sand and cultivated in a greenhouse under good growth conditions. The test plants are treated at the early leaf stage (BBCH10-BBCH13). To assure uniform water supply before commencement of stress, the potted plants were supplied with water by dam irrigation prior to substance application. The inventive compounds were first formulated as wettable powders (WP) or dissolved in a solvent mixture. The further dilution was effected with water supplemented with 0.2% wetting agent (e.g. agrotin). The finished spray liquor was sprayed onto the green parts of the plant at an equivalent water application rate of 600 l/ha. Substance application was followed immediately by stress treatment of the plants. Drought stress was induced by gradual drying out under the following conditions: “Day”: 14 hours with illumination at ˜26-30° C. “Night”: 10 hours without illumination at ˜18-20° C. The duration of the respective stress phases was guided mainly by the condition of the stressed control plants. It was ended (by re-irrigating and transfer to a greenhouse with good growth conditions) as soon as irreversible damage was observed on the stressed control plants. The end of the stress phase was followed by an about 4-7-day recovery phase, during which the plants were once again kept under good growth conditions in a greenhouse. The duration of the recovery phase was guided mainly by when the trial plants had attained a state which enabled visual scoring of potential effects, and was therefore variable. Once this juncture had been reached, the appearance of the plants treated with test substances was recorded in comparison to the stressed control plants by the following categories: • 0 no positive effect • + slight positive effect • ++ clear positive effect • +++ strong positive effect In order to rule out any influence on the effects observed by any fungicidal or insecticidal action of the test compounds, it was additionally ensured that the tests proceeded without fungal infection or insect infestation. The values reported in tables B-1 and B-2 below are mean values of the results from at least three repeats. Effects of selected compounds of the general formula (I) under drought stress according to the following tables B-1 and B-2: […]

Triticum aestivum [4] = assay: In vivo analyses Part B: drought stress, spray application, appearance vs stressed control in categories, Triticum aestivum; design: key: 0: no positive effect; +: slight positive effect; ++: clear positive effect; +++: strong positive effect
Method: as §2

## COc1c(C)cnc(CN(C(=O)c2ccc(Cl)cc2Cl)N(C)C)c1C [A12-37]
Brassica napus [1]; dosage 25 g/ha
  EF [%] (BRSNS): >5%
Triticum aestivum [2]; dosage 25 g/ha
  EF [%] (TRZAS): >5%

## CN(C)N(Cc1ccc(Br)cc1F)C(=O)c1ccc(Cl)cc1Cl [A12-44]
Brassica napus [1]; dosage 25 g/ha
  EF [%] (BRSNS): >5%
Zea mays; dosage 250 g/ha
  EF [%] (ZEAMX): >5%
Triticum aestivum [2]; dosage 250 g/ha
  EF [%] (TRZAS): >5%

## CN(C)N(Cc1cc(C(F)(F)F)ccc1Cl)C(=O)c1ccc(Cl)cc1Cl [A12-86]
Brassica napus [1]; dosage 25 g/ha
  EF [%] (BRSNS): >5%

## Cc1ccc(C(F)(F)F)c(C(=O)N(Cc2ccccn2)N(C)C)c1 [A13-21]
Brassica napus [1]; dosage 25 g/ha
  EF [%] (BRSNS): >5%
Zea mays; dosage 250 g/ha
  EF [%] (ZEAMX): >5%
Triticum aestivum [2]; dosage 250 g/ha
  EF [%] (TRZAS): >5%

## CN(C)N(Cc1ncc(C(F)(F)F)cc1Cl)C(=O)c1ccc(F)cc1C(F)(F)F [A14-36]
Zea mays; dosage 250 g/ha
  EF [%] (ZEAMX): >5%

## CN(C)N(Cc1ncc(Cl)cc1Cl)C(=O)c1cccc(Cl)c1 [A28-35]
Brassica napus [1]; dosage 250 g/ha
  EF [%] (BRSNS): >5%
Zea mays; dosage 250 g/ha
  EF [%] (ZEAMX): >5%

## CN(C)N(Cc1ccccc1Cl)C(=O)c1ccccc1[N+](=O)[O-] [A32-1]
Zea mays; dosage 250 g/ha
  EF [%] (ZEAMX): >5%

## CN(C)N(Cc1ccc2ccccc2n1)C(=O)c1cccc([N+](=O)[O-])c1 [A33-122]
Brassica napus [1]; dosage 250 g/ha
  EF [%] (BRSNS): >5%
Zea mays; dosage 25 g/ha
  EF [%] (ZEAMX): >5%

## CN(C)N(Cc1ccc2ccccc2n1)C(=O)c1cccc(C#N)c1 [A34-122]
Zea mays; dosage 25 g/ha
  EF [%] (ZEAMX): >5%

## CN(C)N(Cc1ccccc1Cl)C(=O)c1cnccc1C(F)(F)F [B1-1]
Zea mays; dosage 25 g/ha
  EF [%] (ZEAMX): >5%

## CN(C)N(Cc1ccc(F)cc1F)C(=O)c1cnccc1C(F)(F)F [B1-15]
Brassica napus [3]; dosage 250 g/ha
  Effect (BRSNS): +++
Triticum aestivum [4]; dosage 250 g/ha
  Effect (TRZAS): +

## CN(C)N(Cc1c(F)cccc1F)C(=O)c1cnccc1C(F)(F)F [B1-17]
Brassica napus [3]; dosage 250 g/ha
  Effect (BRSNS): ++
Triticum aestivum [4]; dosage 250 g/ha
  Effect (TRZAS): +

## CN(C)N(Cc1cccc(C#N)c1)C(=O)c1cnccc1C(F)(F)F [B1-62]
Brassica napus [3]; dosage 250 g/ha
  Effect (BRSNS): ++
Triticum aestivum [4]; dosage 250 g/ha
  Effect (TRZAS): +

## CN(C)N(Cc1ccc2ccccc2n1)C(=O)c1cnccc1C(F)(F)F [B1-122]
Brassica napus [1]; dosage 25 g/ha
  EF [%] (BRSNS): >5%
Zea mays; dosage 250 g/ha
  EF [%] (ZEAMX): >5%

## Cc1c(OCC(F)(F)F)ccnc1CN(C(=O)c1cnccc1C(F)(F)F)N(C)C [B1-144]
Brassica napus [1]; dosage 25 g/ha
  EF [%] (BRSNS): >5%
Triticum aestivum [2]; dosage 25 g/ha
  EF [%] (TRZAS): >5%

## CN(C)N(Cc1ccccn1)C(=O)c1cccnc1C(F)(F)C(F)(F)F [B3-21]
Brassica napus [1]; dosage 250 g/ha
  EF [%] (BRSNS): >5%
Zea mays; dosage 25 g/ha
  EF [%] (ZEAMX): >5%

## CN(C)N(Cc1ccccc1C#N)C(=O)c1ccc(C(F)(F)F)nc1 [B5-61]
Brassica napus [3]; dosage 25 g/ha
  Effect (BRSNS): +
Triticum aestivum [4]; dosage 25 g/ha
  Effect (TRZAS): +

## CN(C)N(Cc1ccc(Cl)nc1)C(=O)c1ccc(C(F)F)nc1 [B6-94]
Brassica napus [3]; dosage 250 g/ha
  Effect (BRSNS): +
Triticum aestivum [4]; dosage 250 g/ha
  Effect (TRZAS): +

## CN(C)N(Cc1ccc(Cl)cc1)C(=O)c1ccncc1 [C1-3]
Brassica napus [1]; dosage 250 g/ha
  EF [%] (BRSNS): >5%
Zea mays; dosage 25 g/ha
  EF [%] (ZEAMX): >5%

## CN(C)N(Cc1ccccc1C#N)C(=O)c1ccncc1 [C1-61]
Brassica napus [1]; dosage 250 g/ha
  EF [%] (BRSNS): >5%

## CN(C)N(Cc1cccc(C#N)c1)C(=O)c1ccncc1 [C1-62]
Brassica napus [1]; dosage 2.5 g/ha
  EF [%] (BRSNS): >5%

## CN(C)N(Cc1cccc([N+](=O)[O-])c1)C(=O)c1ccncc1 [C1-111]
Brassica napus [1]; dosage 2.5 g/ha
  EF [%] (BRSNS): >5%
Zea mays; dosage 25 g/ha
  EF [%] (ZEAMX): >5%
Triticum aestivum [2]; dosage 25 g/ha
  EF [%] (TRZAS): >5%

## CN(C)N(Cc1ncc(C(F)(F)F)cc1Cl)C(=O)c1ccncc1C(F)(F)F [C2-36]
Brassica napus [1]; dosage 25 g/ha
  EF [%] (BRSNS): >5%

## CN(C)N(Cc1cc(C(F)(F)F)ccc1Cl)C(=O)c1ccccn1 [D1-86]
Brassica napus [1]; dosage 25 g/ha
  EF [%] (BRSNS): >5%
Zea mays; dosage 250 g/ha
  EF [%] (ZEAMX): >5%

## CN(C)N(Cc1ccccc1Cl)C(=O)c1cncnc1C(F)(F)Cl [E3-1]
Brassica napus [3]; dosage 25 g/ha
  Effect (BRSNS): +
Triticum aestivum [4]; dosage 25 g/ha
  Effect (TRZAS): +

## CN(C)N(Cc1ccccc1C#N)C(=O)c1ccnnc1 [G1-61]
Brassica napus [3]; dosage 100 g/ha
  Effect (BRSNS): +
Triticum aestivum [4]; dosage 100 g/ha
  Effect (TRZAS): +

Reference: patent publication US20180206495A1, “SUBSTITUTED ARYL AND HETEROARYL CARBOXYLIC ACID HYDRAZIDES OR SALTS THEREOF AND USE THEREOF TO INCREASE STRESS TOLERANCE IN PLANTS” (BAYER CROPSCIENCE AKTIENGESELLSCHAFT, priority 2015, published 2018)
